Columns and labels:
[1] = system: retinoic acid-induced osteoporosis rats; experiment: CT detection of bone microstructure of thigh bone in retinoic acid-induced osteoporosis rats; format: in vivo, SD rats; conditions: RA-induced osteoporosis rats, 12 w
Description: The data were represented by mean value±standard error. After the experiment was completed, thigh bone on the right side of rats were collected, and subjected to CT detection, and […] (BV/TV), the number of trabeculae (TbN) and trabeculae spacing (TbSp) were calculated, and the results were shown in Table 4. An example was selected from each of Control group, Model group, abaloptide group, 20 μg/kg dosage group of Example 1, 20 μg/kg dosage group of Example 2 and 20 μg/kg dosage group of Example 5, and the scanned figures by micron X-ray 3D imaging system of trochlea of their thigh bone were shown in FIG. 1.

[2] = system: ovary removed SD rats (OVX induced rat osteoporosis model); experiment: Bone mineral density (DXA) in ovariectomy-induced osteoporosis rats; format: in vivo; conditions: for 0 w Bone mineral density lumbar vertebra / 0 w Bone mineral density thigh bone: 0 w (before administration, baseline); for 25 w Bone mineral density lumbar vertebra / 25 w Bone mineral density thigh bone / 0-25 w percentage of change % lumbar vertebra (bone mineral density) / 0-25 w percentage of change % thigh bone (bone mineral density): 5 times a week; for 0-25 w percentage of change % lumbar vertebra (bone mineral density) / 0-25 w percentage of change % thigh bone (bone mineral density): 25 w vs before administration
From the text: The animals had free access to water. […] 1) Bone mineral density (BMD) was detected with a dual-energy X-ray bone densitometry (DXA) before model establishment (−13 w), before administration (0 w), and 6 w, 12 w, 25 w, 37 w and 49 w after administration. […] The data were represented by mean value±standard error. Percentage of bone mineral density change=(bone mineral density at the detection time point−bone density before administration)/bone density before administration*100%

[3] = system: retinoic acid-induced osteoporosis rats; experiment: Three-point mechanical test of thigh bone in retinoic acid-induced osteoporosis rats; format: in vivo, SD rats; conditions: 12 w; for Peak load of three-point mechanics (thigh bone): RA-induced osteoporosis rats
Description: Experimental method: SD rats were administered by gavage to induce a rat osteoporosis model. After model establishment, the rats were randomly grouped according to bone mineral densities of thigh bone: (1) vehicle group (Control group): normal saline was subcutaneously administered in an equal volume to the test compound, and soybean oil was administered by gavage in an equal volume to retinoic acid; (2) Model group: normal saline of the same volume was subcutaneously administered; and administered with retinoic acid (RA) by gavage every other day to maintain osteoporosis state; (3) 20 μg dosage group of positive drug abaloptide (Aba-20): 10 μg/kg abaloptide was subcutaneously administered, and retinoic acid was administered by gavage every other day. Administration groups of three dosages were set for each test compound. −10 μg/kg dosage group of the test compound: 10 μg/kg test compound was subcutaneously administered, and retinoic acid was administered by gavage every other day. −20 μg/kg dosage group of the test compound: 20 μg/kg test compound was subcutaneously administered, and retinoic acid was administered by gavage every other day. −40 μg/kg dosage group of the test compound: 40 μg/kg test compound was subcutaneously administered, and retinoic acid was administered by gavage every other day. The administration was carried out 5 times a week, with normal saline as the diluent of test drug, and the administration successively lasted for 12 weeks. The induction dosage of retinoic acid was about 80 mg/kg and the maintenance dosage after model establishment was about 30 mg/Kg, and solvent of inducing agent was soybean oil. […] The thigh bone on the left was subjected to three-point bending test, and the thigh bone on the right was subjected to CT scan and was used to prepare a pathological section. Statistical analysis of data: the data were treated with SPSS 20 software. The data in line with normality test were subjected to one-way analysis of variance; and the data not in line with normality test were subjected to rank sum test. The data were represented by mean value±standard error.

[4] = 5 μg/kg subcutaneous, listed as abaloptide

Substance: Ala-Val-Ser-Glu-His-Gln-Leu-Leu-His-Asp-Lys-Gly-Lys-Ser-Ile-Gln-Asp-Leu-Arg-Arg-Arg-Glu-Leu-Leu-Glu-Lys-Leu-Leu-Ala-Lys-Leu-His-Thr-Ala-Tyr-Arg-Gly-Phe-Gly-Gly (AVSEHQLLHDKGKSIQDLRRRELLEKLLAKLHTAYRGFGG; The sequence is synthesized) [Example 3]
- BV/TV (CT, thigh bone) ([1]; 10 μg/kg subcutaneous): 0.33
- TbN, number of trabeculae (CT, thigh bone) ([1]; 10 μg/kg subcutaneous): 4.17 mm^−1
- TbSp, trabeculae spacing (CT, thigh bone) ([1]; 10 μg/kg subcutaneous): 0.20 mm
- BV/TV (CT, thigh bone) ([1]; 20 μg/kg subcutaneous): 0.30
- TbN, number of trabeculae (CT, thigh bone) ([1]; 20 μg/kg subcutaneous): 4.21 mm^−1
- TbSp, trabeculae spacing (CT, thigh bone) ([1]; 20 μg/kg subcutaneous): 0.17 mm
- BV/TV (CT, thigh bone) ([1]; 40 μg/kg subcutaneous): 0.39
- TbN, number of trabeculae (CT, thigh bone) ([1]; 40 μg/kg subcutaneous): 4.22 mm^−1
- TbSp, trabeculae spacing (CT, thigh bone) ([1]; 40 μg/kg subcutaneous): 0.15 mm
- 0 w Bone mineral density lumbar vertebra ([2]; 2.5 μg/kg group): 0.24 ± 0 g/cm^2
- 0 w Bone mineral density thigh bone ([2]; 2.5 μg/kg group): 0.23 ± 0 g/cm^2
- 25 w Bone mineral density lumbar vertebra ([2]; 2.5 μg/kg subcutaneous): 0.27 ± 0 g/cm^2
- 25 w Bone mineral density thigh bone ([2]; 2.5 μg/kg subcutaneous): 0.26 ± 0 g/cm^2
- 0-25 w percentage of change % lumbar vertebra (bone mineral density) ([2]; 2.5 μg/kg subcutaneous): 12.4 ± 2.2 %
- 0-25 w percentage of change % thigh bone (bone mineral density) ([2]; 2.5 μg/kg subcutaneous): 14.03 ± 1.81 %
- 0 w Bone mineral density lumbar vertebra ([2]; 5 μg/kg group): 0.24 ± 0 g/cm^2
- 0 w Bone mineral density thigh bone ([2]; 5 μg/kg group): 0.23 ± 0 g/cm^2
- 25 w Bone mineral density lumbar vertebra ([2]; 5 μg/kg subcutaneous): 0.29 ± 0.01 g/cm^2
- 25 w Bone mineral density thigh bone ([2]; 5 μg/kg subcutaneous): 0.29 ± 0.02 g/cm^2
- 0-25 w percentage of change % lumbar vertebra (bone mineral density) ([2]; 5 μg/kg subcutaneous): 20.41 ± 2.56 %
- 0-25 w percentage of change % thigh bone (bone mineral density) ([2]; 5 μg/kg subcutaneous): 27.19 ± 1.33 %
- 0 w Bone mineral density lumbar vertebra ([2]; 10 μg/kg group): 0.24 ± 0.01 g/cm^2
- 0 w Bone mineral density thigh bone ([2]; 10 μg/kg group): 0.23 ± 0 g/cm^2
- 25 w Bone mineral density lumbar vertebra ([2]; 10 μg/kg subcutaneous): 0.29 ± 0.01 g/cm^2
- 25 w Bone mineral density thigh bone ([2]; 10 μg/kg subcutaneous): 0.29 ± 0 g/cm^2
- 0-25 w percentage of change % lumbar vertebra (bone mineral density) ([2]; 10 μg/kg subcutaneous): 22.46 ± 2.25 %
- 0-25 w percentage of change % thigh bone (bone mineral density) ([2]; 10 μg/kg subcutaneous): 28.7 ± 1.6 %
- Peak load of three-point mechanics (thigh bone) ([3]; 10 μg/kg subcutaneous): 97.65 N
- Peak load of three-point mechanics (thigh bone) ([3]; 20 μg/kg subcutaneous): 126.54 N
- Peak load of three-point mechanics (thigh bone) ([3]; 40 μg/kg subcutaneous): 131.74 N

Substance: abaloptide [reference compound]
- BV/TV (CT, thigh bone) ([1]; 20 μg/kg subcutaneous): 0.28
- TbN, number of trabeculae (CT, thigh bone) ([1]; 20 μg/kg subcutaneous): 3.4 mm^−1
- TbSp, trabeculae spacing (CT, thigh bone) ([1]; 20 μg/kg subcutaneous): 0.22 mm
- 0 w Bone mineral density lumbar vertebra ([2]; 5 μg/kg group): 0.24 ± 0 g/cm^2
- 0 w Bone mineral density thigh bone ([2]; 5 μg/kg group): 0.23 ± 0 g/cm^2
- 25 w Bone mineral density lumbar vertebra ([2]; 5 μg/kg subcutaneous): 0.3 ± 0 g/cm^2
- 25 w Bone mineral density thigh bone ([2]; 5 μg/kg subcutaneous): 0.3 ± 0 g/cm^2
- 0-25 w percentage of change % lumbar vertebra (bone mineral density) ([2]; 5 μg/kg subcutaneous): 21.66 ± 2.12 %
- 0-25 w percentage of change % thigh bone (bone mineral density) ([2]; 5 μg/kg subcutaneous): 30.28 ± 2 %
- 0-25 w percentage of change % lumbar vertebra (bone mineral density) [2, 4]: 21.66±2.12%
- 0-25 w percentage of change % thigh bone (bone mineral density) [2, 4]: 30.28±2%
- peak load of thigh bone compared with Model group ([3]; 20 μg/kg dosage group): did not significantly increase
- Peak load of three-point mechanics (thigh bone) ([3]; 20 μg/kg subcutaneous): 119.57 N
